The source of these data is patent US20200123495A1, “COMPOSITION AND METHOD FOR CONTROLLING INSECTS AND MICR[…] PSEUDOMONAS […]” (Academia Sinica, priority 2014, published 2020).

For assay [1], the system named is Xanthomonas oryzae pv. oryzae (Xoo).
Assay [2] in a line: CAS plate assay (removal of iron from the CAS dye). Particulars: 1.2 and 1.5 mg pyoverdine on CAS agar plates. On the procedure:
Chrome azurol S (CAS) is a universal method that detects the mobilization of iron, which assays siderphores production. To prepare 100 ml CAS dye, 60.5 mg CAS powder (Sigma) was dissolved in 50 ml distilled water and mixed with 10 ml of 1 mM iron solution (anhydration FeCl3, Alfa Aesar). Then, 40 ml of 72.9 mg HDTMA (Sigma) was added slowly to 60 ml CAS solution with FeCl3 and autoclaved to sterilize. After CAS cool down can be hand held, one-tenth of CAS solution mixed with LP agar medium and immediately poured into plates.
Different concentration of purified pyoverdine was injected into the hole (5 mm) of CAS plates. Plates were incubated at 28° C. for 6 h or until yellow halo appearance.

For the next assay, the system named is Drosophila melanogaster. Particulars: previous study, Liu et al. 2010; cited from earlier work.

For `C[C@@H](O)[C@@H](NC(=O)[C@@H](NC(=O)[C@H](CCCCN)NC(=O)[C@@H](CO)NC(=O)C1CCN=C2C(NC(=O)CCC(=O)O)=Cc3cc(O)c(O)cc3N21)C(O)c1c[nH]cn1)C(=O)N[C@@H](CO)C(=O)N[C@H]1CCCN(O)C1=O` (stereo partly drawn) [pyoverdine, Q-DSer-Lys-OHHis-aDThr-Ser-cOHOrn], in assay [1], the “IC50 toward Xoo (inhibition of cell growth)” value is “about 2.035 mg/ml” and the “LD50 against Xoo (lethal dose)” value was “about 1.98 mg/ml”. Besides, in assay [2], the CAS reaction rate result was “rapidly detected”.
Take “recombinant TccC: TccC gene from P. taiwanensis overexpressed in E. coli (SEQ ID NO:2)”: in the assay with Drosophila melanogaster, the “mortality in Drosophila larvae” value is reported as “increase the mortality”.
